Assay [1] concerns the target T1, Eukaryotic translation initiation factor 2-alpha kinase 3 (Homo sapiens, UniProt Q9NZJ5).
T1 sequence (Q9NZJ5 whole entry): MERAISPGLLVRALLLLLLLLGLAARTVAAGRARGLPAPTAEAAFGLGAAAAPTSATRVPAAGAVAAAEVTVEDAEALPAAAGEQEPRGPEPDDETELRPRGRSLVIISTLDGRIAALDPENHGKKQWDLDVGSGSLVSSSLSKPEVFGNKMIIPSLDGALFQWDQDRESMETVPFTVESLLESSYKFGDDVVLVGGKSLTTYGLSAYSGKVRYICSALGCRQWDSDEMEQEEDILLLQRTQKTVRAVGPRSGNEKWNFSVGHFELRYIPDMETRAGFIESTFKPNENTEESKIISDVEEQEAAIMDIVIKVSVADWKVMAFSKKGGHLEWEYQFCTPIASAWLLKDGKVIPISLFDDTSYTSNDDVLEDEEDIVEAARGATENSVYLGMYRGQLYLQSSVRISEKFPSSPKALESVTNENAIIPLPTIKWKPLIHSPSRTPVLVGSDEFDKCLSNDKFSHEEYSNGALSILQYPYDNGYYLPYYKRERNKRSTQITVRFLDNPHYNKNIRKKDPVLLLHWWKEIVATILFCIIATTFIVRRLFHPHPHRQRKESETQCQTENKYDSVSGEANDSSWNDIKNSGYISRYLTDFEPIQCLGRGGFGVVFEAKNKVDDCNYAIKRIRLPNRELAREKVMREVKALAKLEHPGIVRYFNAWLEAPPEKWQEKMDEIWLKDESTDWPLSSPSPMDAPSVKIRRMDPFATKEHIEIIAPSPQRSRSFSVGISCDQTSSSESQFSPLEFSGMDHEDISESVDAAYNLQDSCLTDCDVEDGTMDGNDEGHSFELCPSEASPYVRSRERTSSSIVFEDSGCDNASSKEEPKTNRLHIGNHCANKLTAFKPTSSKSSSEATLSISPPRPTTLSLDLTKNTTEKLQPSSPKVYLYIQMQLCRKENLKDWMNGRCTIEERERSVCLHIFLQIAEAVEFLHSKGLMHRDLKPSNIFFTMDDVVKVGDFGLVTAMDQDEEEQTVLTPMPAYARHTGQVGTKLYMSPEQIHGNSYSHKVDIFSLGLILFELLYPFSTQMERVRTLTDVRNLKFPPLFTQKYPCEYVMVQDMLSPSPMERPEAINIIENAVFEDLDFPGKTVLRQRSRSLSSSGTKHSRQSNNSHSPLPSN
The assay is described as follows: Dose response cell-based high-throughput screening assay to measure PERK inhibition. [Related pubchem assays: 1416 ]. Format: functional.

Assay [2] deals with T1, Eukaryotic translation initiation factor 2-alpha kinase 3. In words: Counterscreen assay for PERK inhibitors: Dose response cell-based high throughput screening assay to measure inhibition of PERK at 6 hours. [Related pubchem assays: 1522, 1416 ]. It is filed as functional. In general terms: The purpose of a counterscreen is to sort out artefacts and off-target activity.

The target of assay [3] is Voltage-dependent T-type calcium channel subunit alpha-1H (Homo sapiens, UniProt O95180). It is filed as functional.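 Also: channel activity triggered by adding a high calcium stimulation buffer.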
The nature of assay [4]: insulin promoter down-regulators in MIN6 cells, imaging, high-content screening, mouse beta cells (AID 1628). It is filed as functional.
A short description of assay [5]: cytotoxicity in MIN6 insulinoma cells, dose response, cytotoxicity control, cell-based, mouse insulinoma (AID 2122).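 Also: confirmatory high-throughput counterscreen run to flag cytotoxic compounds; mouse MIN-6 beta cells carrying an insulin promoter eGFP reporter.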 It is filed as functional.
Assay [6] is described as follows: cytotoxicity in HEK-293T cells, dose response, cytotoxicity control for BCR NF-kB inhibitor project, luminescence, B-cell screen hits (AID 489021).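 Also: HEK-293T cells carrying an NF-kB luciferase reporter; cells exposed to compound for about 14 hours before viability readout.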 It is filed as functional, cell-based.
Another assay addresses T2, Hexokinase HKDC1 (Homo sapiens, UniProt Q2TB90).
T2 sequence (Q2TB90 whole entry): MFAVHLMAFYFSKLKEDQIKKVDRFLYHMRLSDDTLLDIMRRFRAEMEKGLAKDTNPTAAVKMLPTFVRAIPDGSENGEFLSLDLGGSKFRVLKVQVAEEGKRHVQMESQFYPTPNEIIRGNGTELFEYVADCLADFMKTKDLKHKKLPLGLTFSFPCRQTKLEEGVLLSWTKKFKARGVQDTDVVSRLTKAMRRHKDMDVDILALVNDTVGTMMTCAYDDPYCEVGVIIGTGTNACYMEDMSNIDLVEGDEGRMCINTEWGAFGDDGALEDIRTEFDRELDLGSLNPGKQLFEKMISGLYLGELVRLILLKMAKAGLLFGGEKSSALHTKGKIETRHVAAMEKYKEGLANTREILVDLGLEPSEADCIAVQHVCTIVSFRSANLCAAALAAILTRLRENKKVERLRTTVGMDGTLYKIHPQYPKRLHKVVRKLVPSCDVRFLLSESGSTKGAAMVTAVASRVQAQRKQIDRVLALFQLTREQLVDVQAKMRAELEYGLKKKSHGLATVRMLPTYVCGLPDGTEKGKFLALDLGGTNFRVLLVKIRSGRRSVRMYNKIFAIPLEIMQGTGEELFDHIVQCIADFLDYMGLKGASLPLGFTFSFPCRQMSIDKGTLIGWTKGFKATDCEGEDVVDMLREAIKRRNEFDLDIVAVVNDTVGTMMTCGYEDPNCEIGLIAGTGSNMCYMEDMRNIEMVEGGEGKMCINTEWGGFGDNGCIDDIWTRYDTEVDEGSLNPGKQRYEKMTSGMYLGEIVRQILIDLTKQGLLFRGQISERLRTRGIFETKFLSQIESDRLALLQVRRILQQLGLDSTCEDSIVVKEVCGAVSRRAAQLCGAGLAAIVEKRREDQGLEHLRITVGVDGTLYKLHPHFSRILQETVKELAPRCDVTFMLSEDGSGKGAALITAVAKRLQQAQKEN
The assay is described as follows: HKDC1 hexokinase inhibitors, dose response, biochemical, W721R variant (AID 504729). Format: functional.

Assay [7] has as its target DNA dC->dU-editing enzyme APOBEC-3A (Homo sapiens, UniProt P31941). The assay is described as follows: Dose Response confirmation of small molecule APOBEC3A DNA Deaminase Inhibitors via a fluorescence-based single-stranded DNA deaminase assay. [Related pubchem assays (depositor defined):AID493011, AID493024]. It is filed as functional.
Assay [8] addresses T3, Calpain-2 catalytic subunit (Sus scrofa, UniProt P43367).
T3 sequence (P43367 whole entry): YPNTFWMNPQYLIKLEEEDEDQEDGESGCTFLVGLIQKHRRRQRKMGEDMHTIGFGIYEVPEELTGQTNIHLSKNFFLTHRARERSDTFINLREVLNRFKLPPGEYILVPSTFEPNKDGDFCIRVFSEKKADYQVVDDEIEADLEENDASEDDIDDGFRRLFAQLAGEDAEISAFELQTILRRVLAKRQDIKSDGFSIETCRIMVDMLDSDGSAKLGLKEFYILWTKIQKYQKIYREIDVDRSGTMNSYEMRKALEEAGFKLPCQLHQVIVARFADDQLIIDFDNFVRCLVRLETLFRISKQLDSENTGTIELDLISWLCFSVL
The assay is described as follows: pig calpain II inhibitor potency, dose response, biochemical, fluorogenic peptide substrate (AID 1420). It is filed as functional.

The target in assay [9] is Polyadenylate-binding protein 1 (Homo sapiens, UniProt P11940). In words: PABP poly(A) RNA binding inhibitors, primary screen, biochemical, fluorescence polarization, uHTS (AID 2014). In general terms: In fluorescence polarisation assays a small probe gives low polarisation when free and higher when bound to something large.
Assay [10] deals with DNA dC->dU-editing enzyme APOBEC-3G (Homo sapiens, UniProt Q9HC16). It is filed as functional.
Assay [11] deals with Eukaryotic translation initiation factor 4H (Homo sapiens, UniProt Q15056). In words: human eIF4H binding inhibitors, primary screen, translation initiation inhibitor project, biochemical, uHTS, fluorescence polarization (AID 2012).
The nature of assay [12]: Luminescence Cell-Based Dose Retest to Confirm Inhibitors of Cancer Stem Cells. [Related pubchem assays (depositor defined):AID2717, AID2721]. It is filed as functional. The note with it: Homo sapiens.
Assay [13] deals with T4, Scavenger receptor class B member 1 (Mus musculus, UniProt Q61009).
T4 sequence (Q61009 whole entry): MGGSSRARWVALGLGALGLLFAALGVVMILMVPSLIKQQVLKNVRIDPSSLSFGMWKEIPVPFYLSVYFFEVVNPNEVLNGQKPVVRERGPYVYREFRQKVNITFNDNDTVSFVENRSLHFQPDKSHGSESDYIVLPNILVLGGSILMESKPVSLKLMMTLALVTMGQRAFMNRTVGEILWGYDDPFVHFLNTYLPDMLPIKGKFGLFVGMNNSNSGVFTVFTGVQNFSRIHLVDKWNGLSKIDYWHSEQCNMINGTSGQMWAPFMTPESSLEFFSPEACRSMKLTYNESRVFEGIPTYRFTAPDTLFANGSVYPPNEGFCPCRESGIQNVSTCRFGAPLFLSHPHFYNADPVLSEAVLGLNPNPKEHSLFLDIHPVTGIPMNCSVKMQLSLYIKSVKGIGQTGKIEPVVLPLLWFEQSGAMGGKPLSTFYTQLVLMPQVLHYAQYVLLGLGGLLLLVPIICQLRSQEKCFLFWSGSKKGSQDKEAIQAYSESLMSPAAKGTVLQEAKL
The assay is described as follows: inhibitors of SR-BI mediated HDL lipid uptake, dose response, ldlA[mSR-BI] cells, fluorescence, cherry pick (AID 493194).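 Also: cellular uptake of fluorescent DiI-labeled HDL measured as cell fluorescence.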 Format: functional, cell-based.

The target of assay [14] is T5, Neuropeptides B/W receptor type 1 (Homo sapiens, UniProt P48145).
T5 sequence (P48145 whole entry): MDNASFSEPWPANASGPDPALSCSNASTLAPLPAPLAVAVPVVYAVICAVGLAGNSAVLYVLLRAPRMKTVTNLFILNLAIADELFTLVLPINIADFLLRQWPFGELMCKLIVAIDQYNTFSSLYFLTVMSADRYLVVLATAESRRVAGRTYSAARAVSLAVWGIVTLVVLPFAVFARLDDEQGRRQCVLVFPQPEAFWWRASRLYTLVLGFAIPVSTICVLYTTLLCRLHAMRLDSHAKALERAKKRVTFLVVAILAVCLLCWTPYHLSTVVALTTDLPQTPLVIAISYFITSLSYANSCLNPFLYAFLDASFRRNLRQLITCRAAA
In words: Fluorescence-based dose response cell-based high throughput screening assay to identify antagonists of the G-protein coupled receptor 7 (GPR7). [Related pubchem assays: 1952 (Screening assay (GPR7 antagonists).), 1880 (Summary AID.)]. It is filed as functional.

Assay [15] addresses Melanin-concentrating hormone receptor 1 (Homo sapiens, UniProt Q99705). In words: Fluorescence-based counterscreen for antagonists of the G-protein coupled receptor 7 (GPR7): cell-based high throughput dose response assay to identify antagonists of the melanin-concentrating hormone receptor 1 (MCHR1). It is filed as functional.

The source made the active and inactive calls. Some results are limits rather than exact numbers.

Voltage-dependent T-type calcium channel subunit alpha-1H, sequence (O95180 whole entry): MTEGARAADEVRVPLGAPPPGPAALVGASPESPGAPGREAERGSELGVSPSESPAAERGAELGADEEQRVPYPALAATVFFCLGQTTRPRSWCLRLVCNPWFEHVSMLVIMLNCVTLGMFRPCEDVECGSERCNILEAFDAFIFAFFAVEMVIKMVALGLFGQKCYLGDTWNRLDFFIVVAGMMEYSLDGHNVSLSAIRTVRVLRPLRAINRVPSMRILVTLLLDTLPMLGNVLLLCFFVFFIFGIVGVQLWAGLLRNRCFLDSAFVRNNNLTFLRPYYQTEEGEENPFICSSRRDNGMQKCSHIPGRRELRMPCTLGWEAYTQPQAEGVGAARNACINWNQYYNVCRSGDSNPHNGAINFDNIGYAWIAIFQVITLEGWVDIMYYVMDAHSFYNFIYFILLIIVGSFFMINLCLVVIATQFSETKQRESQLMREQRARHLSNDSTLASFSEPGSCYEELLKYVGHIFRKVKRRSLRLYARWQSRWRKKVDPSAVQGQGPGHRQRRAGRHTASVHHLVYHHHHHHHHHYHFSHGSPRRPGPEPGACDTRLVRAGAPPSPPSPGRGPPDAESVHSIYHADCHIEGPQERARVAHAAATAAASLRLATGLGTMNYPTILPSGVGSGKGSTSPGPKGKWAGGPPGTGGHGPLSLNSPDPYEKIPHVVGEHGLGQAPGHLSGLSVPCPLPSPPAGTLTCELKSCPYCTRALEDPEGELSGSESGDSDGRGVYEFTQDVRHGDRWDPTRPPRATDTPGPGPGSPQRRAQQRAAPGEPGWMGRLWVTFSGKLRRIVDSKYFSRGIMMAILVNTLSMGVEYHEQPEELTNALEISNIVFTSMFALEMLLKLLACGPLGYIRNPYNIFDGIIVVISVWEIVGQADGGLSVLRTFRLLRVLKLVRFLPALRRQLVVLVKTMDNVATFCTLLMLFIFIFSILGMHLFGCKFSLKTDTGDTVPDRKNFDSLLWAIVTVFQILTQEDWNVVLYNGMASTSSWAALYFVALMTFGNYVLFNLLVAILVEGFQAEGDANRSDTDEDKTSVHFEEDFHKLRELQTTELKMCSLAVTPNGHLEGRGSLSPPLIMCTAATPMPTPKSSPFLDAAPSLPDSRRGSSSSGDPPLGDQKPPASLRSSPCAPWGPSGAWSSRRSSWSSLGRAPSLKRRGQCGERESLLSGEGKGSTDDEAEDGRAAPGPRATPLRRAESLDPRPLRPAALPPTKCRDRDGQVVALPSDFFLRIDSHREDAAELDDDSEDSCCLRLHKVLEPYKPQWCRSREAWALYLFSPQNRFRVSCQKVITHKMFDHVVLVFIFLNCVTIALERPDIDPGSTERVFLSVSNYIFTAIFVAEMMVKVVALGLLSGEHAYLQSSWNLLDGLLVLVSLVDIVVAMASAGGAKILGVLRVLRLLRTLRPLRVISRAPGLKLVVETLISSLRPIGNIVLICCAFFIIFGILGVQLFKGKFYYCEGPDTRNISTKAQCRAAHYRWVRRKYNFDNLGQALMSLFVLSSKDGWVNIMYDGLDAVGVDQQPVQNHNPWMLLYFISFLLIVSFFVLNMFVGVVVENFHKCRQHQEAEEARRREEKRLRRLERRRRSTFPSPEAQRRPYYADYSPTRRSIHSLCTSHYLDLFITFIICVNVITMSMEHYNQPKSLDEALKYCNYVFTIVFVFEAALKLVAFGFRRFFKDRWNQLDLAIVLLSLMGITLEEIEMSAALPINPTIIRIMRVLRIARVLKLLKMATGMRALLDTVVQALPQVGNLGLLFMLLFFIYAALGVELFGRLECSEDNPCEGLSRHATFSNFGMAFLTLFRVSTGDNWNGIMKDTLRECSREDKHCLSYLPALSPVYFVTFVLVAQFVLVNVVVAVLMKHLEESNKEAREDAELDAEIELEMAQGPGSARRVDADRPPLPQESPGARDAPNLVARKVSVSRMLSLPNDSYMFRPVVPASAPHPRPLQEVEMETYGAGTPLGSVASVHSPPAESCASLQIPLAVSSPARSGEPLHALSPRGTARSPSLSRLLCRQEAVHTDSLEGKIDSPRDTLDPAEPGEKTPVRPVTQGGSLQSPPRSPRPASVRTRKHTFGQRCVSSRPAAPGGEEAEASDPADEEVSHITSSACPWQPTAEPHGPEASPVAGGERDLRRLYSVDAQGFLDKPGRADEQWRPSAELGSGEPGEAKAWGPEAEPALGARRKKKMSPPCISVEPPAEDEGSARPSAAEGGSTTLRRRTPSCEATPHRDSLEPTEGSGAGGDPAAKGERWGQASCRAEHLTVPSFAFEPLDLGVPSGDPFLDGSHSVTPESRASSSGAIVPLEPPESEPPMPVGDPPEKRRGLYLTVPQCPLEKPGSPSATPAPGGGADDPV
Polyadenylate-binding protein 1, sequence (P11940 whole entry): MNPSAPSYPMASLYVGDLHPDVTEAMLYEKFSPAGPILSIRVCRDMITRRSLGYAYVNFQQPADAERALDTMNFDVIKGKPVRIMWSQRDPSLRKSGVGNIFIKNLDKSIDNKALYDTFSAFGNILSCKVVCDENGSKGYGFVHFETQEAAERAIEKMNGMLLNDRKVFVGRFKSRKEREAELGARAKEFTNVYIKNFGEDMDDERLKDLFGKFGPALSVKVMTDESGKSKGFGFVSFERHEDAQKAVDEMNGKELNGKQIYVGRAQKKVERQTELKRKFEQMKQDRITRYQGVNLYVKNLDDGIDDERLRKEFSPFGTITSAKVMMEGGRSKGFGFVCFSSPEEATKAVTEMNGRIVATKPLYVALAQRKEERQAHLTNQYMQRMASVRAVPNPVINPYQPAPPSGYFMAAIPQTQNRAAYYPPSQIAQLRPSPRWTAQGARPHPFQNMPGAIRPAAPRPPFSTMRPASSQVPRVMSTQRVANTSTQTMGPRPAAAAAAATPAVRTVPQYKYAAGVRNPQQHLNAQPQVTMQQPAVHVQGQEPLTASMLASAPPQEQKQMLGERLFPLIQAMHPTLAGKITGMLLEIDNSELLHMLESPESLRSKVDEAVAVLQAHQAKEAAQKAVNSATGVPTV
DNA dC->dU-editing enzyme APOBEC-3G, sequence (Q9HC16 whole entry): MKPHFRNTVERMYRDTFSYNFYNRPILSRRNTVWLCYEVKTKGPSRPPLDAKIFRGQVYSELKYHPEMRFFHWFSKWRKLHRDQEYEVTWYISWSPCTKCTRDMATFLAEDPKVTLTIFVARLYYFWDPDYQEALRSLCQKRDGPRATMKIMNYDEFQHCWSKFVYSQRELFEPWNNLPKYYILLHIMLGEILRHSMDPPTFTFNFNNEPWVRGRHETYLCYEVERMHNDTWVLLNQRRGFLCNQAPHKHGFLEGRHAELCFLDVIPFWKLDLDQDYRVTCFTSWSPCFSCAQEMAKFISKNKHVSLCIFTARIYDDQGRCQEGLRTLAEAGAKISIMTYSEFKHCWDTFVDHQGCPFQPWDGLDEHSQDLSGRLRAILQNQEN
DNA dC->dU-editing enzyme APOBEC-3A, sequence (P31941 whole entry): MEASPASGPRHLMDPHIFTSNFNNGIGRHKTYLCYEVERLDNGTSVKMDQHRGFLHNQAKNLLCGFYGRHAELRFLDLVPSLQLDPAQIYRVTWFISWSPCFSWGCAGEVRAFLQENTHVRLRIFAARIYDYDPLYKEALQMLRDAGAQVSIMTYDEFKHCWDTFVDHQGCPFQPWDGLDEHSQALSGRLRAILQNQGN
Melanin-concentrating hormone receptor 1, sequence (Q99705 whole entry): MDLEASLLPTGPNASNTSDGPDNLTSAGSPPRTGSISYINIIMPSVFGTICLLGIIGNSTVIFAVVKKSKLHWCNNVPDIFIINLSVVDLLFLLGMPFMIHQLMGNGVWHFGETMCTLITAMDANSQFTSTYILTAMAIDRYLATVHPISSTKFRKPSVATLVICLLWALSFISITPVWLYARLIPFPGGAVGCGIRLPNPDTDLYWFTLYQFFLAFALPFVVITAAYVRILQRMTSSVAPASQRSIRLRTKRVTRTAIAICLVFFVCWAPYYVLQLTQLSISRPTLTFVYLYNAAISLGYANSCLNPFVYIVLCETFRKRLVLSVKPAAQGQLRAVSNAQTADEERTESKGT

A word on the EC50: it is the concentration needed to bring the measured effect to its halfway point. For `COc1ccc2c(c1)c(=O)oc1cc(O)ccc12`, the EC50 in assay [1] and in assay [2] was > 55.7 µM (not active) in each case.

In the case of `c1ccc(C(c2nnnn2Cc2ccco2)N2CCN(c3nc4ccccc4s3)CC2)cc1` (configuration not stated), in assay [3], the EC50 was 6.65 µM (active).

Turning to `Cc1ccccc1OCC(=O)N(Cc1nc(-c2ccccc2)no1)C(C)C`, in [3], the EC50 was 5.63 µM (active).

In general, IC50 refers to the midpoint of a concentration-inhibition curve. `N=c1ccn(Cc2ccccc2Cl)cc1`: the half-inhibitory concentration (IC50) is 3.37 µM (active) in assay [4], 3.42 µM (active) in assay [5] and > 80 µM (inactive) in [6].

As to `CCCCNC(=O)c1sc(=S)n2c1[nH]c(=O)c1ccc(C(=O)NCCc3ccc(OC)c(OC)c3)cc12`, the IC50 at Hexokinase HKDC1 was 35.7 µM (inactive).

As to `COc1ccc(CCCc2nnc(SCC(=O)Nc3ccc(C)c(C)c3)o2)cc1`, the IC50 in assay [7] is 2.18 µM (active); in assay [8], < 0.4 µM (not active); in [9], 6.61 µM (active); in assay [10], 3.68 µM (active); in assay [11], > 100 µM (inactive).

The term AC50 denotes the concentration at which the activity in the assay is half-maximal. As to `C=CCCC(=O)Nc1nc(C)c(-c2csc(Nc3ccc(Cl)cc3)n2)s1`, the AC50 in assay [12] was 2.6 µM (active); in assay [13], 7.3 µM (active).

On to `O=C(O)Cn1cnc2c(S)ncnc21`, for which the EC50 in assay [1] and in assay [2] was > 55.7 µM (not active) each time.

`CC(C)(CO)NCc1c(OCc2ccc(Cl)cc2)ccc2ccccc12`: the figures for the IC50 in [14] and in assay [15] were 7.85 µM (active) and 9.31 µM (active), respectively.

As for `COc1ccc(NC(=O)CN(C)C(=O)C2(c3ccccc3)CCCC2)cc1`, the IC50 in assay [6] was > 80 µM (inactive).

As to `COc1cc(/C=N\NC(=O)c2ccc(Cl)cc2)ccc1Oc1ccc([N+](=O)[O-])cn1`, the concentration for half-maximal inhibition (IC50) in assay [9] was 9.22 µM (active); in [11], > 100 µM (inactive).

The values are drawn from ChEMBL document CHEMBL1201862, “PubChem BioAssay data set” (2004).
